Measurements published in patent US8017767B2, “Sucralose composition” (Tate & Lyle Public Limited Company, priority 2000, dated 2011).

Assay: Accelerated stability test (50° C.) with pH stability test of sucralose sample solution
Format: physicochemical
From the text: Label seven 6 oz. and seven 18 oz. WHIRLPAK® polyethylene bags with indelible marker for each batch being tested for stability. Accurately weigh 25 g±0.01 g of sucralose into each 6 oz. WHIRLPAK® polyethylene bag. Heat or impulse seal the 6 oz. bag to ensure air tightness. Cut off any excess polyethylene at the top of the bag above the seal. Place the 6 oz. sealed bag into the 18 oz. bag and heat or impulse seal the 18 oz. bag to ensure air tightness. Roll down the top of the 18 oz. bag above the seal and bend the metal ties to form hooks.
Place the prepared bags into an oven stabilized at 50° C.±0.5° C. by hanging them from racks by the bag hooks. The bags must be freely suspended and not touch anything. Record the time samples are placed into the oven.
The pH stability test is conducted on the sucralose at time zero (the day the samples are placed in the oven, before the sucralose is exposed to elevated temperature) and every 24 hours until the batch being tested fails the test.
Place approximately 100 ml of deionized water into a 150 ml beaker. Using 0.1 N hydrochloric acid and/or 0.1 N sodium hydroxide, adjust the pH of the water to be between 5.8 and 6.0. Record the pH reading.
Accurately weigh 5 g±0.001 g of the product to be tested and transfer it to a 50 ml volumetric flask. Dissolve and bring to the mark by adding pH-adjusted water. If the sample to be tested is one that has been exposed to heat, remove one bag of the batch being tested from the oven and allow it to cool to room temperature before opening and sampling.
Pour the solution into a 100 ml beaker containing a stir bar, and slowly stir the solution on a magnetic stirrer. Immerse the pH electrode in the sample, allow the pH reading to stabilize, and record the pH reading of the sample. If no pH drop is observed after all the bags have been tested, the experiment is void and the test must repeated with a larger number of bags.
Record (to one decimal place) the pH of both the pH-adjusted water used and the sample sucralose solution. Subtract the pH of the […]. Report the result as (−) for a pH drop and (+) for a pH gain, e.g.:
The sample fails the test if there is a pH drop of 1.0 pH unit or more. The pH stability of the batch is defined as the number of days until the pH drop between the sample solution and that of the pH adjusted water is ≧1.0.
Samples of sucralose were tested for stability using the above procedures, but using bags of different moisture permeability. All other experimental details were the same. The TYVEK®/polyethylene bags are permeable; the WHIRLPAK® bags are less permeable. The A8080 bag consists of aluminum foil laminated to low-density polyethylene, which makes it very impermeable to moisture.

[1] = 50° C., package A8080 (aluminum foil laminated to low-density polyethylene), impermeable
[2] = 50° C., package FF 91 TYVEK/Polyethylene, very permeable

| Days to pH Failure (50° C., WHIRLPAK polyethylene bags, failure = pH drop ≧1.0, Example 2, pH at crystallizer varied) [Days] | Initial pH difference (sample solution vs pH-adjusted water at time zero, Example 2, pH at crystallizer varied) | Ph Stability [1] [days] | Ph Stability [2] [days] | SMILES |
| --- | --- | --- | --- | --- |
| 7 | +0.43 | – | – | OC[C@H]1O[C@H](O[C@]2(CCl)O[C@H](CCl)[C@@H](O)[C@@H]2O)[C@H](O)[C@@H](O)[C@H]1Cl [Sample 46, 4,1′,6′-trichloro-4,1′,6′-trideoxy-galactosucrose] |
| – | – | 33 | 4 | OC[C@H]1O[C@H](O[C@]2(CCl)O[C@H](CCl)[C@@H](O)[C@@H]2O)[C@H](O)[C@@H](O)[C@H]1Cl [Sample 47, 4,1′,6′-trichloro-4,1′,6′-trideoxy-galactosucrose] |
| – | – | 33 | 4 | OC[C@H]1O[C@H](O[C@]2(CCl)O[C@H](CCl)[C@@H](O)[C@@H]2O)[C@H](O)[C@@H](O)[C@H]1Cl [sucralose, 4,1′,6′-trichloro-4,1′,6′-trideoxy-galactosucrose] |
